Data reported in patent US20140171419A1, “ENHANCEMENT OF CELLULAR TRANSPLANTATION USING SMALL MOLECULE MODULATORS HEPATOCYTE GROWTH FACTOR (SCATTER FACTOR) ACTIVITY” (ANGION BIOMEDICA CORP, priority 2009, published 2014).

System: primary human hepatocytes
Assay: BrdU cell proliferation assay in cryopreserved primary human hepatocytes
Format: cell-based
Conditions: 50 ng/ml, overnight treatment, 4 hour BrdU incubation; control 0.032±0.011
Method: Cryopreserved primary human hepatocytes (CellzDirect catalog #[…], Lot # Hu0948) were plated on a collagen-coated 96 well plate according to the supplier's instructions and allowed to adhere and stabilize for 48 hours. Cells were treated with a compound of formula (II) embodied herein (10 μM final concentration) or HGF (50 ng/ml) overnight, and the next day, cell proliferation was determined using a BrdU assay (Chemicon, catalog #2750) according to the manufacturer's instructions, with a 4 hour incubation period of BrdU. Plates were read at 450 and 550 (background) nm and the difference was taken as an indicator of cell proliferation. Both test compound and HGF stimulated the BrdU incorporation in hepatocytes vs. control: test compound, 0.336±0.072; HGF, 0.388±0.134; and control, 0.032±0.011. Hepatocytes enhanced using the compounds of the invention can be used subsequently for cellular transplant into a human recipient, providing enhanced cell survival and numbers to increase the quality of the cells used in the transplant, the survival of cells after transplant and reduce the number of cells required to achieve the desired outcome of the transplant procedure and restoring or enhancing hepatic function in the recipient.

In the case of “HGF: hepatocyte growth factor (scatter factor), a pleiotropic growth factor, used as positive comparator”, the “BrdU incorporation (difference of plate readings at 450 and 550 (background) nm, indicator of cell proliferation)” value is reported as 0.388±0.134.
